According to US20260297060A1, “COMPOUNDS FOR THE DEGRADATION OF MUTANT BRAF” (C4 THERAPEUTICS, INC., priority 2023, published 2026):
Read-outs that look alike come from different tables or passages of the source.

Assay: Pharmacokinetics in female BALB/c nude mice bearing A375 xenografts, 1 day dosing (PK and PD study): plasma, tumor and brain concentrations, AUC
Type: in vivo
Settings: mouse, po
From the text: The concentrations of Dabrafenib, Compound 26 and Compound 141 in the treatment of female BALB/c nude mice bearing A375 xenografts are shown in Table 62-Table 72 and FIG. 52-FIG. 73.

[1] = plasma, 1.5 mg/kg, Compound 141, 1.5 mg/kg p.o. BID × 1 day, post 1st dose, read-out: Mean Concentration in Plasma ± SEM
[2] = plasma, 1.5 mg/kg, Compound 141, 1.5 mg/kg p.o. BID × 1 day, post 2nd dose, read-out: Mean Concentration in Plasma ± SEM
[3] = plasma, 3 mg/kg, 3 mg/kg p.o. QD × 1 day, read-out: Mean Concentration in Plasma ± SEM
[4] = plasma, 5 mg/kg, 5 mg/kg p.o. BID × 1 day, post 1st dose, read-out: Mean Concentration in Plasma ± SEM
[5] = plasma, 5 mg/kg, 5 mg/kg p.o. BID × 1 day, post 2nd dose, read-out: Mean Concentration in Plasma ± SEM
[6] = tumor, 0.75 mg/kg, 0.75 mg/kg p.o. BID × 1 day, post 2nd dose, read-out: Mean Concentration in Tumor ± SEM
[7] = tumor, 1 mg/kg, 1 mg/kg p.o. TID × 1 day, post 3rd dose, read-out: Mean Concentration in Tumor ± SEM
[8] = tumor, 1.5 mg/kg, Compound 141, 1.5 mg/kg p.o. BID × 1 day, post 2nd dose, read-out: Mean Concentration in Tumor ± SEM
[9] = tumor, 3 mg/kg, 3 mg/kg p.o. QD × 1 day, read-out: Mean Concentration in Tumor ± SEM
[10] = tumor, 5 mg/kg, 5 mg/kg p.o. BID × 1 day, post 2nd dose, read-out: Mean Concentration in Tumor ± SEM

**Q.** With `CCN(C)S(=O)(=O)Nc1ccc(F)c(Oc2ccc3ncn(C4CC5(CCN(C6CC7(C6)CN(c6cc8c(cc6F)c(N6CCC(=O)NC6=O)nn8C)C7)CC5)C4)c(=O)c3c2)c1C#N` (stereo not shown) [Compound 141, 6-[2-cyano-3-[[ethyl(methyl)sulfamoyl]amino]-6-fluoro-phenoxy]-3-[7-[2-[3-(2,4-dioxohexahydropyrimidin-1-yl)-5-fluoro-1-methyl-indazol-6-yl]-2-azaspiro[3.3]heptan-6-yl]-7-azaspiro[3.5]nonan-2-yl]-4-oxo-quinazoline] as the molecule, how does the concentration at 0.25 h [1] read?
**A.** 710 ± 61.9 ng/mL

**Q.** What about the concentration at 0.5 h [1] of the same molecule?
**A.** 1150 ± 94 ng/mL

**Q.** And the concentration at 1 h [1]?
**A.** 2030 ± 255 ng/mL

**Q.** And the concentration at 2 h [1]?
**A.** 1610 ± 128 ng/mL

**Q.** And the concentration at 4 h [1]?
**A.** 796 ± 312 ng/mL

**Q.** And the concentration at 8 h [1]?
**A.** 256 ± 19.3 ng/mL

**Q.** And the concentration at 12 h [1]?
**A.** 43.4 ± 4.65 ng/mL

**Q.** What about the concentration at 0.25 h [2] of the same molecule?
**A.** 359 ± 30.7 ng/mL

**Q.** And the concentration at 0.5 h [2]?
**A.** 830 ± 129 ng/mL

**Q.** And the concentration at 1 h [2]?
**A.** 1560 ± 99.1 ng/mL

**Q.** And the concentration at 2 h [2]?
**A.** 1550 ± 181 ng/mL

**Q.** And the concentration at 4 h [2]?
**A.** 831 ± 96.6 ng/mL

**Q.** And the concentration at 10 h [2]?
**A.** 115 ± 34.3 ng/mL

**Q.** And the concentration at 24 h [2]?
**A.** 1.2 ± 0.262 ng/mL

**Q.** What about the concentration at 0.25 h [3] of the same molecule?
**A.** 1070 ± 209 ng/mL

**Q.** What about the concentration at 0.5 h [3] of the same molecule?
**A.** 2020 ± 160 ng/mL

**Q.** And the concentration at 1 h [3]?
**A.** 2830 ± 372 ng/mL

**Q.** And the concentration at 2 h [3]?
**A.** 3660 ± 315 ng/mL

**Q.** What about the concentration at 4 h [3] of the same molecule?
**A.** 1440 ± 285 ng/mL

**Q.** What about the concentration at 8 h [3] of the same molecule?
**A.** 661 ± 279 ng/mL

**Q.** And the concentration at 10 h [3]?
**A.** 307 ± 60.4 ng/mL

**Q.** And the concentration at 24 h [3]?
**A.** 3.86 ± 2.5 ng/mL

**Q.** And the concentration at 36 h [3]?
**A.** 1.05 ng/mL

**Q.** What about the concentration at 0.25 h [4] of the same molecule?
**A.** 1810 ± 126 ng/mL

**Q.** And the concentration at 0.5 h [4]?
**A.** 3460 ± 404 ng/mL

**Q.** What about the concentration at 1 h [4] of the same molecule?
**A.** 4860 ± 155 ng/mL

**Q.** And the concentration at 2 h [4]?
**A.** 3650 ± 760 ng/mL

**Q.** What about the concentration at 4 h [4] of the same molecule?
**A.** 1220 ± 55.5 ng/mL

**Q.** And the concentration at 8 h [4]?
**A.** 648 ± 142 ng/mL

**Q.** What about the concentration at 12 h [4] of the same molecule?
**A.** 43.6 ± 2.7 ng/mL

**Q.** What about the concentration at 0.25 h [5] of the same molecule?
**A.** 1680 ± 89.6 ng/mL

**Q.** What about the concentration at 0.5 h [5] of the same molecule?
**A.** 3160 ± 596 ng/mL

**Q.** What about the concentration at 1 h [5] of the same molecule?
**A.** 4850 ± 488 ng/mL

**Q.** And the concentration at 2 h [5]?
**A.** 3620 ± 428 ng/mL

**Q.** What about the concentration at 4 h [5] of the same molecule?
**A.** 1750 ± 468 ng/mL

**Q.** What about the concentration at 10 h [5] of the same molecule?
**A.** 484 ± 109 ng/mL

**Q.** What about the concentration at 24 h [5] of the same molecule?
**A.** 4.28 ± 1.89 ng/mL

**Q.** What about the concentration at 36 h [5] of the same molecule?
**A.** 2.06 ± 1.17 ng/mL

**Q.** And the concentration at 48 h [5]?
**A.** 0.635 ng/mL

**Q.** What about the concentration at 1 h [6] of the same molecule?
**A.** 117 ± 11 ng/g

**Q.** What about the concentration at 4 h [6] of the same molecule?
**A.** 143 ± 37.7 ng/g

**Q.** What about the concentration at 10 h [6] of the same molecule?
**A.** 93 ± 22.1 ng/g

**Q.** And the concentration at 24 h [6]?
**A.** 3.27 ng/g

**Q.** What about the concentration at 1 h [7] of the same molecule?
**A.** 152 ± 35.7 ng/g

**Q.** What about the concentration at 4 h [7] of the same molecule?
**A.** 254 ± 43.2 ng/g

**Q.** What about the concentration at 10 h [7] of the same molecule?
**A.** 205 ± 40.9 ng/g

**Q.** What about the concentration at 24 h [7] of the same molecule?
**A.** 16.7 ± 12.2 ng/g

**Q.** What about the concentration at 48 h [7] of the same molecule?
**A.** 8.07 ng/g

**Q.** What about the concentration at 0.25 h [8] of the same molecule?
**A.** 58.9 ± 26.7 ng/g

**Q.** And the concentration at 0.5 h [8]?
**A.** 61.5 ± 14 ng/g

**Q.** And the concentration at 1 h [8]?
**A.** 239 ± 17.6 ng/g

**Q.** And the concentration at 2 h [8]?
**A.** 382 ± 43.9 ng/g

**Q.** And the concentration at 4 h [8]?
**A.** 214 ± 27.1 ng/g

**Q.** And the concentration at 10 h [8]?
**A.** 54.7 ± 17.9 ng/g

**Q.** And the concentration at 24 h [8]?
**A.** 22.5 ± 18.5 ng/g

**Q.** And the concentration at 36 h [8]?
**A.** 38.5 ng/g

**Q.** What about the concentration at 48 h [8] of the same molecule?
**A.** 11.1 ng/g

**Q.** And the concentration at 1 h [9]?
**A.** 254 ± 26.3 ng/g

**Q.** What about the concentration at 4 h [9] of the same molecule?
**A.** 439 ± 90.9 ng/g

**Q.** And the concentration at 10 h [9]?
**A.** 130 ± 19 ng/g

**Q.** What about the concentration at 24 h [9] of the same molecule?
**A.** 12.9 ± 7.75 ng/g

**Q.** What about the concentration at 48 h [9] of the same molecule?
**A.** 7.64 ng/g

**Q.** And the concentration at 1 h [10]?
**A.** 626 ± 78.6 ng/g

**Q.** What about the concentration at 4 h [10] of the same molecule?
**A.** 636 ± 83.4 ng/g

**Q.** And the concentration at 10 h [10]?
**A.** 205 ± 47.2 ng/g

**Q.** And the concentration at 24 h [10]?
**A.** 6.26 ± 1.12 ng/g

**Q.** What about the concentration at 48 h [10] of the same molecule?
**A.** 10.6 ng/g
